This test has as its target T1, full-length MALT1 protein His-MALT1(1-824) (Homo sapiens, UniProt Q9UDY8).
T1 construct: full-length MALT1 protein His-MALT1(1-824); His (N); made in house; host or cells: baculovirus-infected insect cells
T1 sequence (Q9UDY8 1-824): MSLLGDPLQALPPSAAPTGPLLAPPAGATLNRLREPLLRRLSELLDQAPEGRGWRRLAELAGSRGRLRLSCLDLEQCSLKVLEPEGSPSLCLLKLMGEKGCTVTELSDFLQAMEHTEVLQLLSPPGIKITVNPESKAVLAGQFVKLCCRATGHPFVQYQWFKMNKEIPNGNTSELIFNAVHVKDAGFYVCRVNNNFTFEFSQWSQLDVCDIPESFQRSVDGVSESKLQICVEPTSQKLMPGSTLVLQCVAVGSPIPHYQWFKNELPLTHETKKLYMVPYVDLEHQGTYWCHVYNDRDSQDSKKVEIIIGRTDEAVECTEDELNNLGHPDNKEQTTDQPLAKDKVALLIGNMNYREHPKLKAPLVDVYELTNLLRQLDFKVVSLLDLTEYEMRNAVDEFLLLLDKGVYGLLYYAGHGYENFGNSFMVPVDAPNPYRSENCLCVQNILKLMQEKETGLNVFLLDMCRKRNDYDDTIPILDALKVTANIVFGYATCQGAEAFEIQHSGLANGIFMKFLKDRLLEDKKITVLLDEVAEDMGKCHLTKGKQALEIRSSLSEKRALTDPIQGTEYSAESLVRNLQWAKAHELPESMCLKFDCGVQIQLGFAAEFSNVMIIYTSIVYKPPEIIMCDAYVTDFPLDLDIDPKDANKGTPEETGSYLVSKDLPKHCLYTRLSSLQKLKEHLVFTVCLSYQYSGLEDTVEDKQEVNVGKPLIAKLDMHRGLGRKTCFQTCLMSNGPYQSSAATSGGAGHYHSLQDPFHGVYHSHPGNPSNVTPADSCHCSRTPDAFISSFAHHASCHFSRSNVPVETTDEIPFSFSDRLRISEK
Briefly: MALT1 protease assay (Ac-LRSR-AMC tetrapeptide substrate, fluorescence). In kind it is biochemical. The conditions noted are these: 1 nM MALT1, 25 μM Ac-LRSR-AMC, 2 h pre-incubation, 8 hr incubation at RT. The method, then:
MALT1 protease activity was assessed in an in vitro assay using a tetrapeptide as substrate and full-length MALT1 protein His-MALT1(1-824) purified from baculovirus-infected insect cells.
The final assay buffer includes 1 nM of MALT1 full-length protein, 25 μM Ac-LRSR-AMC substrate, 50 mM Tris pH 7.5, 600 mM Sodium Citrate, 1 mM DTT, 1 mM EDTA, and 0.05% BSA in 384-well plate format using black microtiter square well plates (Optiplate 384-F, Perkin Elmer).
Test compounds were dissolved in 100% DMSO stock of 10 mM, with final DMSO concentration of 0.1%. Test compounds were pre-incubated with MALT1 protein for 2 h at room temperature. Substrate was added after the pre-incubation and fluorescence signal was measured using Envision at excitation 355 nm and emission 460 nm after 8 hr incubation at RT.
The fluorescence units were transformed to percentage of remaining activity by using the high control (HC, median of fluorescence signal from wells containing MALT1 protein, substrate, and DMSO) and low control (LC, median of fluorescence signal from wells with substrate only) with the formula below: […]
IC50 and Hill coefficients were obtained using Graph Pad Prism (Graph Pad software, Inc, USA) with non-linear regression analysis.

A value given as a limit tells only on which side of the number the result lay.

Usually IC50 stands for the midpoint of a concentration-inhibition curve. A low value points to higher potency. Compound `Cn1cc([C@@]2(C)C[C@H](C(=O)Nc3cnc(-n4nccn4)c(Cl)c3)c3cnc4c(Cl)c(F)nn4c32)cn1` (single isomer, unassigned) [Example 16] returned an IC50 of 100 to 1000 nM.

For `Cn1cc([C@]2(C)C[C@@H](C(=O)Nc3cnc(-n4nccn4)c(Cl)c3)c3cnc4c(Cl)c(F)nn4c32)cn1` (single isomer, unassigned) [Example 17], the IC50 was at least 1000 nM.

Consider `Cn1cc([C@]2(C)C[C@H](C(=O)Nc3cnc(-n4nccn4)c(Cl)c3)c3cnc4c(Cl)c(F)nn4c32)cn1` (single isomer, unassigned) [Example 18, cis-3-chloro-N-(5-chloro-6-(2H-1,2,3-triazol-2-yl)pyridin-3-yl)-2-fluoro-8-methyl-8-(1-methyl-1H-pyrazol-4-yl)-7,8-dihydro-6H-cyclopenta[e]pyrazolo[1,5-a]pyrimidine-6-carboxamide], for which the IC50 is at least 1000 nM.

The compound `Cn1cc([C@@]2(C)C[C@@H](C(=O)Nc3cnc(-n4nccn4)c(Cl)c3)c3cnc4c(Cl)c(F)nn4c32)cn1` (single isomer, unassigned) [Example 19, cis-3-chloro-N-(5-chloro-6-(2H-1,2,3-triazol-2-yl)pyridin-3-yl)-2-fluoro-8-methyl-8-(1-methyl-1H-pyrazol-4-yl)-7,8-dihydro-6H-cyclopenta[e]pyrazolo[1,5-a]pyrimidine-6-carboxamide] returned an IC50 of at least 1000 nM.

Regarding `CCn1cc([C@]2(C)C[C@@H](C(=O)Nc3cnc(-n4nccn4)c(Cl)c3)c3cnc4cc(F)nn4c32)cn1` (single isomer, unassigned) [Example 21], the IC50 was at least 1000 nM.

As to `CCn1cc([C@]2(C)C[C@H](C(=O)Nc3cnc(-n4nccn4)c(Cl)c3)c3cnc4cc(F)nn4c32)cn1` (single isomer, unassigned) [Example 22], the IC50 fell in the range of 10 to 100 nM.

Take `CCn1cc([C@@]2(C)C[C@@H](C(=O)Nc3cnc(-n4nccn4)c(Cl)c3)c3cnc4cc(F)nn4c32)cn1` (single isomer, unassigned) [Example 23]: the IC50 is 100 to 1000 nM.

As to `C[C@@]1(c2cnn(C(F)F)c2)C[C@@H](C(=O)Nc2cnc(-n3nccn3)c(Cl)c2)c2cnc3cc(F)nn3c21` (single isomer, unassigned) [Example 25], the IC50 was at least 1000 nM.

In the case of `C[C@@]1(c2cnn(C(F)F)c2)C[C@H](C(=O)Nc2cnc(-n3nccn3)c(Cl)c2)c2cnc3cc(F)nn3c21` (single isomer, unassigned) [Example 26], the IC50 fell in the range of 10 to 100 nM.

For the compound `C[C@]1(c2cnn(C(F)F)c2)C[C@@H](C(=O)Nc2cnc(-n3nccn3)c(Cl)c2)c2cnc3cc(F)nn3c21` (single isomer, unassigned) [Example 27], the IC50 is at least 1000 nM.

The compound `C[C@@]1(c2cnn(C3CC3)c2)C[C@@H](C(=O)Nc2cnc(-n3nccn3)c(Cl)c2)c2cnc3cc(F)nn3c21` (single isomer, unassigned) [Example 29] yielded a 50% inhibitory concentration (IC50) of at least 1000 nM.

The compound `C[C@@]1(c2cnn(C3CC3)c2)C[C@H](C(=O)Nc2cnc(-n3nccn3)c(Cl)c2)c2cnc3cc(F)nn3c21` (single isomer, unassigned) [Example 30] had an IC50 of 10 to 100 nM.

The compound `C[C@]1(c2cnn(C3CC3)c2)C[C@@H](C(=O)Nc2cnc(-n3nccn3)c(Cl)c2)c2cnc3cc(F)nn3c21` (single isomer, unassigned) [Example 31] returned an IC50 of at least 1000 nM.

As to `Cn1ccc([C@]2(C)C[C@@H](C(=O)Nc3cnc(-n4nccn4)c(Cl)c3)c3cnc4cc(F)nn4c32)n1` (single isomer, unassigned) [Example 33], the IC50 was at least 1000 nM.

In turn, `Cn1ccc([C@]2(C)C[C@H](C(=O)Nc3cnc(-n4nccn4)c(Cl)c3)c3cnc4cc(F)nn4c32)n1` (single isomer, unassigned) [Example 34] returned an IC50 of 100 to 1000 nM.

`Cn1ccc([C@@]2(C)C[C@@H](C(=O)Nc3cnc(-n4nccn4)c(Cl)c3)c3cnc4cc(F)nn4c32)n1` (single isomer, unassigned) [Example 35] gave an IC50 of 100 to 1000 nM.

Regarding `C[C@]1(c2cncs2)C[C@H](C(=O)Nc2cnc(-n3nccn3)c(Cl)c2)c2cnc3cc(F)nn3c21` (single isomer, unassigned) [Example 36], the IC50 was under 10 nM.

For `C[C@@]1(c2cncs2)C[C@@H](C(=O)Nc2cnc(-n3nccn3)c(Cl)c2)c2cnc3cc(F)nn3c21` (single isomer, unassigned) [Example 37], the half-maximal inhibitory concentration (IC50) was at least 1000 nM.

Consider `C[C@@]1(c2cncs2)C[C@H](C(=O)Nc2cnc(-n3nccn3)c(Cl)c2)c2cnc3cc(F)nn3c21` (single isomer, unassigned) [Example 38], for which the concentration for half-maximal inhibition (IC50) was in the range of 10 to 100 nM.

For the compound `C[C@]1(c2cncs2)C[C@@H](C(=O)Nc2cnc(-n3nccn3)c(Cl)c2)c2cnc3cc(F)nn3c21` (single isomer, unassigned) [Example 39], the IC50 lay in the range of 10 to 100 nM.

`Cn1cc([C@]2(C)C[C@@H](C(=O)Nc3cnc(OC(F)F)c(C#N)c3)c3cnc4cc(F)nn4c32)cn1` (single isomer, unassigned) [Example 41] showed an IC50 of at least 1000 nM.

In turn, `Cn1cc([C@]2(C)C[C@H](C(=O)Nc3cnc(OC(F)F)c(C#N)c3)c3cnc4cc(F)nn4c32)cn1` (single isomer, unassigned) [Example 42] came in with an IC50 of 100 to 1000 nM.

In turn, `Cn1cc([C@@]2(C)C[C@@H](C(=O)Nc3cnc(OC(F)F)c(C#N)c3)c3cnc4cc(F)nn4c32)cn1` (single isomer, unassigned) [Example 43] showed an IC50 of 100 to 1000 nM.

Take `Cn1cc([C@@]2(C)C[C@H](C(=O)Nc3ccnc(C(F)(F)F)c3)c3cnc4cc(Cl)nn4c32)cn1` (single isomer, unassigned) [Example 44]: the IC50 lay within 10 to 100 nM.

In turn, `Cn1cc([C@]2(C)C[C@@H](C(=O)Nc3ccnc(C(F)(F)F)c3)c3cnc4cc(Cl)nn4c32)cn1` (single isomer, unassigned) [Example 45] had an IC50 of at least 1000 nM.

Compound `Cn1cc([C@]2(C)C[C@H](C(=O)Nc3ccnc(C(F)(F)F)c3)c3cnc4cc(Cl)nn4c32)cn1` (single isomer, unassigned) [Example 46] returned an IC50 of 100 to 1000 nM.

For `Cn1cc([C@@]2(C)C[C@@H](C(=O)Nc3ccnc(C(F)(F)F)c3)c3cnc4cc(Cl)nn4c32)cn1` (single isomer, unassigned) [Example 47], the IC50 was at least 1000 nM.

As for `CC(C)n1cc([C@@]2(C)C[C@H](C(=O)Nc3cnc(-n4nccn4)c(Cl)c3)c3cnc4cc(F)nn4c32)cn1` (single isomer, unassigned) [Example 48], the IC50 was under 10 nM.

On to `CC(C)n1cc([C@]2(C)C[C@@H](C(=O)Nc3cnc(-n4nccn4)c(Cl)c3)c3cnc4cc(F)nn4c32)cn1` (single isomer, unassigned) [Example 49], for which the IC50 is at least 1000 nM.

The compound `CC(C)n1cc([C@]2(C)C[C@H](C(=O)Nc3cnc(-n4nccn4)c(Cl)c3)c3cnc4cc(F)nn4c32)cn1` (single isomer, unassigned) [Example 50] yielded a 50% inhibitory concentration (IC50) of 10 to 100 nM.

Consider `CC(C)n1cc([C@@]2(C)C[C@@H](C(=O)Nc3cnc(-n4nccn4)c(Cl)c3)c3cnc4cc(F)nn4c32)cn1` (single isomer, unassigned) [Example 51], for which the IC50 fell in the range of 100 to 1000 nM.

`Cn1cc([C@@]2(C)C[C@H](C(=O)Nc3cnc(OC(F)(F)F)c(C#N)c3)c3cnc4cc(F)nn4c32)cn1` (single isomer, unassigned) [Example 52] came in with an IC50 of 10 to 100 nM.

`Cn1cc([C@]2(C)C[C@@H](C(=O)Nc3cnc(OC(F)(F)F)c(C#N)c3)c3cnc4cc(F)nn4c32)cn1` (single isomer, unassigned) [Example 53] yielded an IC50 of at least 1000 nM.

Compound `Cn1cc([C@]2(C)C[C@H](C(=O)Nc3cnc(OC(F)(F)F)c(C#N)c3)c3cnc4cc(F)nn4c32)cn1` (single isomer, unassigned) [Example 54] returned an IC50 of 100 to 1000 nM.

For `Cn1cc([C@@]2(C)C[C@@H](C(=O)Nc3cnc(OC(F)(F)F)c(C#N)c3)c3cnc4cc(F)nn4c32)cn1` (single isomer, unassigned) [Example 55], the IC50 was in the range of 100 to 1000 nM.
